The record followed here is patent US5981541A, “Substituted heterocycles as anti-tumor agents” (Rutgers, The State University of New Jersey, priority 1997, dated 1999).

For test [1], the target named is T1, human topoisomerase I (Homo sapiens, UniProt P11387).
T1 construct: 15 amino acid fusion from pET-11a vector (N); made in house; host or cells: E. coli BL21(DE3)
T1 sequence (P11387 1-765): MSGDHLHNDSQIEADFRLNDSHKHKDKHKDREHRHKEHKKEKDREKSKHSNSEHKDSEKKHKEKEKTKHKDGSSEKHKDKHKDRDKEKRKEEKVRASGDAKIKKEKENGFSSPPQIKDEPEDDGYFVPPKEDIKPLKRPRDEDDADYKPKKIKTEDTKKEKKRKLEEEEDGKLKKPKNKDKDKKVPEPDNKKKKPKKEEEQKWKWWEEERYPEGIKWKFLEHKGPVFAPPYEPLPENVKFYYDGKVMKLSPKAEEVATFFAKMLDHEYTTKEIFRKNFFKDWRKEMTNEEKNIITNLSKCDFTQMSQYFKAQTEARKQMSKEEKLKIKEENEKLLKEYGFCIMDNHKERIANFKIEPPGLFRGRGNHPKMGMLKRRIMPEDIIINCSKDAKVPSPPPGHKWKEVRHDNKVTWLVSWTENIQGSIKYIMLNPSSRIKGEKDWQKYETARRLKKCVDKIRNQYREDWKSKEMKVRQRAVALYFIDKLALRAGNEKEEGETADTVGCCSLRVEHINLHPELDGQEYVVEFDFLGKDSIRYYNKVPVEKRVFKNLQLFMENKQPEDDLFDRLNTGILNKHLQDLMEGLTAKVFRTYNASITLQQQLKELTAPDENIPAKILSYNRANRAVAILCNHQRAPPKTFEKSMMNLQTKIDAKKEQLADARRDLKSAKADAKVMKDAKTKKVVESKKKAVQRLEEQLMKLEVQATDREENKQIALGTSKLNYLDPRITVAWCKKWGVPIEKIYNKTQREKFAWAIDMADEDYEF
Description: Topo I-mediated DNA cleavage assay. The class given is biochemical. The settings on record: for Topo I-mediated DNA cleavage (REC, Relative Effective Concentration): concentration relative to camptothecin (CPT = 1) producing the same cleavage on plasmid DNA in the presence of human topoisomerase I. The source says: To obtain large quantity of human topoisomerase I, the human topoisomerase I cDNA was cloned into the pET-11a vector, in which transcription of the cDNA is under the control of the inducible T7 promoter (Studier et al., Methods in Enzymol., Vol. 185:60-89, San Diego: Academic Press (1990)). Briefly, a 3.4 kb DNA fragment containing the entire coding sequence of human topoisomerase I and approximately 1 kb of untranslated region downstream of the stop codon was isolated from the plasmid YCpGAL1-hTOP1 (Bjornsti et al., Cancer Res. 49:6318-6323 (1989)) by cutting at the BamHI and EcoRI sites. The vector pET-11a was cut with the same restriction enzymes, dephosphorylated and ligated to the insert in the proper reading frame downstream of the vector cloning site. […] Since the translational start in pET is positioned at an upstream NdeI site, the expressed topoisomerase I has a 15 amino acid fusion at its N-terminus. pET1B was then transformed into E. coli BL21 (DE3), and, upon induction with 0.4 mM IPTG for 1 hour, the bacterial lysate was analyzed by 10% SDS-PAGE. […] Briefly, E. coli cells were lysed by repeated sonic bursts. The sonic extract was made in 1 M NaCl and 6% polyethylene glycol (PEG) to remove nucleic acids. The PEG supernatant was chromatographed directly on a hydroxyapatite column. […] The eluted enzyme was dialyzed against 50% glycerol, 30 mM potassium phosphate (pH 7.0), 1 mM dithiothreitol (DTT) and 0.1 mM EDTA and stored at -20° C.
(§1) Cleavage assays for the recombinant topoisomerases I and calf thymus topoisomerases I and II were done as described (Liu et al., J. Biol. Chem. 258:15365-15370 (1983)). The plasmid YEpG DNA used for the cleavage assays was prepared and labeled at its 3'-end using the published procedures.

In test [2] the test system is camptothecin-resistant CPT-K5 cells. Put plainly: MTT-microtiter plate tetrazolinium cytotoxicity assay (MTA), CPT-K5. The class given is cell-based, human. The settings on record: Homo sapiens, read-out: Cytotoxicity IC50, CPT-K5. As to the method: (§2) The IC50 of the drugs tested were determined by the MTT-microtiter plate tetrazolinium cytotoxicity assay (MTA) (Mosmann, T., J. Immunol. Methods 65:55-63 (1983); Denizot et al., J. Immunol. Methods 89:271-277 (1986)). Human lymphoblast RPMI 8402 cells and their camptothecin-resistant CPT-K5 cells (Andoh et al., Proc. Natl. Acad. Sci., USA 84:5565-5569 (1987)) were kindly provided by Dr. Toshiwo Andoh (Aichi Cancer Center Research Institute, Nagoya, Japan). The cell lines A2780 and its camptothecin-resistant derivative CPT-2000 were a generous gift of Dr. Jaulang Hwang (Institute of Molecular Biology, Academia sinica, Taiwan). Cells (2000 cells/well, seeded in […] growth medium) were grown in suspension at 37° C. in 5% CO2 and maintained by regular passage in RPMI medium supplemented with 10% heat inactivated fetal bovine serum, L-glutamine (2 mM), penicillin (100 U/mi), and streptomycin (0.1 mg/ml). The cells were exposed continuously for 4 days to drug concentrations ranging from 100 ug/ml to 1.0 ng/ml in ten fold dilutions, and assayed at the end of the fourth day. Each concentration and the no drug control were repeated at least twice in 6 replica wells. The results were plotted and the IC50 then measured. The drug sensitive human epidermoid carcinoma KB 3-1 cell line and its vinblastine-selected multidrug-resistant variant KB-V1 cells (Akiyama et al., Genetics 11:117-126 (1985)) were kindly provided by Dr. Michael Gottesmann (National Cancer Institute). They were grown as monolayer cultures at 37° C. in 5% CO2 and maintained by regular passage in Dulbecco's minimal essential medium supplemented with 10% heat inactivated fetal bovine serum. KB-V1 cells were maintained in the presence of […] vinblastine.

In test [3] the target is T2, calf thymus topoisomerase II (Bos taurus, UniProt F1MDU7).
T2 construct: from tissue; host or cells: calf thymus glands
T2 sequence (F1MDU7 1-1532): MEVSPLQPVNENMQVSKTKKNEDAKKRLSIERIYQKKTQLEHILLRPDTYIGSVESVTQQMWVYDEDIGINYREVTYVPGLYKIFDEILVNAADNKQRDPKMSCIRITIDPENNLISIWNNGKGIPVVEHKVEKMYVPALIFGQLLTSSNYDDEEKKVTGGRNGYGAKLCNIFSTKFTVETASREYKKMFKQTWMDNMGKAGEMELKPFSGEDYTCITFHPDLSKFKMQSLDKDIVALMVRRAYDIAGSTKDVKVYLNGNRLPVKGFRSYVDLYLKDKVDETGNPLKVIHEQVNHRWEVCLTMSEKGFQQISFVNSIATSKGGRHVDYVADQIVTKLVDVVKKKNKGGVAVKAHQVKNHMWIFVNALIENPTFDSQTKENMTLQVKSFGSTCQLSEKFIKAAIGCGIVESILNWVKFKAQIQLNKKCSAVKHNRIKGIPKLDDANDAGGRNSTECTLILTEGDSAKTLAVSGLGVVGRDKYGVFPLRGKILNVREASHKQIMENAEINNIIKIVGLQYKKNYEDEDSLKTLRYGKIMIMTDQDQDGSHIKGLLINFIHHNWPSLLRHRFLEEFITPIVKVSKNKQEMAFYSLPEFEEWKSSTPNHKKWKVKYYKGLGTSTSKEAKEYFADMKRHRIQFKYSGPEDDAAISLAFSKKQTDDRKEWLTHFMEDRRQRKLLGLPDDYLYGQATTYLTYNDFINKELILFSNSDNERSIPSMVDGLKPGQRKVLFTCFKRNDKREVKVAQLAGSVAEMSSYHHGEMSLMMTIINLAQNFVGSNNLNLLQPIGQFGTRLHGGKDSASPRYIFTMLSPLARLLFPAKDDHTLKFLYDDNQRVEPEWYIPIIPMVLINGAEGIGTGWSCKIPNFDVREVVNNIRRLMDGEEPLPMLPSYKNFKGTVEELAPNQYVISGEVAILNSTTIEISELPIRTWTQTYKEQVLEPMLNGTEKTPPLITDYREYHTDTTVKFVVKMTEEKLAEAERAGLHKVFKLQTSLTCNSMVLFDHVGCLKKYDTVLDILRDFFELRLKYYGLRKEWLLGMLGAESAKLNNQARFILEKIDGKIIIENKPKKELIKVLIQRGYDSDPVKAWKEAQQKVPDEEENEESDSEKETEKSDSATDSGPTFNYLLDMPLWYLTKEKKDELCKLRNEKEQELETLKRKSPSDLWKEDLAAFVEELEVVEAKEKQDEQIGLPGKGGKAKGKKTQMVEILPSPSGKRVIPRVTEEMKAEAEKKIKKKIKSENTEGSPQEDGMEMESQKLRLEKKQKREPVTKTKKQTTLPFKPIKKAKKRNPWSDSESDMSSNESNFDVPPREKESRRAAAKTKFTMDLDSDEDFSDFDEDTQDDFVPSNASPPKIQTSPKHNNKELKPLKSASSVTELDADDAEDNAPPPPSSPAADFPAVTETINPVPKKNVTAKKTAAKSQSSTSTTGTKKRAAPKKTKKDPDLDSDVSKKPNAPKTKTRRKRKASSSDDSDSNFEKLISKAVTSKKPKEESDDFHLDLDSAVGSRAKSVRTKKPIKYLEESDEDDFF
Put plainly: Topo II-mediated DNA cleavage assay. The test is classed as biochemical. The note with it: concentration relative to VM26 (= 1) producing the same cleavage on plasmid DNA in the presence of calf thymus topoisomerase II.
From the text: The plasmid pET11a and the E. coli strain BL21(DE3) used for enzyme expression were purchased from Novagen. IPTG was purchased from Sigma. The ECL system used for the Western blotting analysis of bacterial lysates was from Amersham (UK). All the restriction enzymes and Vent polymerase were from New England Biolabs. Mammalian topoisomerase II was isolated from calf thymus glands according to the published procedure (Halligan et al., J. Biol. Chem. 260:2475-2482 (1985)). The single copy yeast plasmids YCpGAL1 expressing various topoisomerase I genes in JN2-134 yeast strain were a kind gift of Dr. M-A. Bjornsti (Thomas Jefferson University, Philadelphia, Pa.). All bacterial and yeast media were from Difco (Detroit, Mich.), while cell culture media were purchased from Gibco-BRL (Gaithersburg, Md.).
as §1

The test system of test [4] is Human lymphoblast RPMI 8402 cells. Description: MTT-microtiter plate tetrazolinium cytotoxicity assay (MTA), RPMI 8402. The class given is cell-based. The note with it: Homo sapiens, read-out: Cytotoxicity IC50, RPMI. As to the method:
as §2

Where two headings read alike, the source gives them in different places. A value given as a limit tells only on which side of the number the result lay.

As a reminder, the IC50 is the concentration needed to halve the response being measured.

Consider `COc1cc2c(cc1OC)-c1cc3cc(OC)c(OC)cc3[n+](C)c1CC2` [Compound 15a, 2,3,9,10-Tetramethoxy-7-methyl-5,6-dihydrobenz[a]acridinium methosulfate], for which the “Topo I-mediated DNA cleavage (REC, Relative Effective Concentration)” value in test [1] came out at 100. Moreover, the IC50 was more than 24 µM in test [2] (CPT-K5, 96 h) and more than 24 µM in test [4] (RPMI 8402, 96 h). Further, the “Topo II-mediated DNA cleavage (REC, Relative Effective Concentration)” value in test [3] is recorded as more than 1000.
For the compound `COc1cc2cc3c(nc2cc1OC)CCc1ccccc1-3` [Compound 13c, 9,10-Dimethoxy-5,6-dihydrobenz[a]acridine], in test [1], the “Topo I-mediated DNA cleavage (REC, Relative Effective Concentration)” value is given as 1000. Besides, the IC50 in test [2] (CPT-K5, 96 h) was 6.9 µM; in test [4] (RPMI 8402, 96 h), 6.9 µM. Besides, the “Topo II-mediated DNA cleavage (REC, Relative Effective Concentration)” value in test [3] was more than 1000.
Turning to `COc1cc2ccc3c(cc4cc(OC)c(OC)cc4[n+]3C)c2cc1OC` [Compound 16a, 2,3,9,10-Tetramethoxy-7-methylbenz[a]acridinium methosulfate], in test [1], the “Topo I-mediated DNA cleavage (REC, Relative Effective Concentration)” value is more than 1000. Besides, the IC50 in test [2] (96 h, camptothecin-resistant CPT-K5 cells, 4 days of continuous drug exposure) was determined as 23.2 µM; in test [4] (96 h, RPMI 8402 cells, 4 days of continuous drug exposure), 25.3 µM. Besides, the “Topo II-mediated DNA cleavage (REC, Relative Effective Concentration)” value in test [3] was more than 1000.
In the case of `COc1cc2c[n+](C)c3c4cc5c(cc4ccc3c2cc1OC)OCO5` [Nitidine, reference compound], in test [1], the “Topo I-mediated DNA cleavage (REC, Relative Effective Concentration)” value is 0.1. Also, the 50% inhibitory concentration (IC50) amounted to 3.9 µM in test [2] (CPT-K5, 96 h) and 0.4 µM in test [4] (RPMI 8402, 96 h). Moreover, the “Topo II-mediated DNA cleavage (REC, Relative Effective Concentration)” value in test [3] is 5.
In the case of `CC[C@@]1(O)C(=O)OCc2c1cc1n(c2=O)Cc2cc3ccccc3nc2-1` [CPT, Camptothecin, reference compound], in test [1], the “Topo I-mediated DNA cleavage (REC, Relative Effective Concentration)” value came out at 1. For the same compound, the half-inhibitory concentration (IC50) was more than 10 µM in test [2] (CPT-K5, 96 h) and 0.004 µM in test [4] (RPMI 8402, 96 h). The “Topo II-mediated DNA cleavage (REC, Relative Effective Concentration)” value in test [3] was more than 1000.
The corresponding values for `Oc1cc2cc3c(ccc4cc(O)c(O)cc43)nc2cc1O` [Compound 14g, 2,3,9,10-tetrahydroxybenz[a]acridine] are 100, more than 34 µM, 17.1 µM and more than 1000.
For the compound `COc1cc2ccc3c(C)c4cc(OC)c(OC)cc4[n+](C)c3c2cc1OC` [Compound 9, 2,3,9,10-Tetramethoxy-7,1 2-dimethylbenz [c]acridinium methosulfate], the “Topo I-mediated DNA cleavage (REC, Relative Effective Concentration)” value in test [1] is more than 1000. The IC50 in test [2] (CPT-K5, 96 h) was determined as 1.2 µM; in test [4] (RPMI 8402, 96 h), 1.2 µM. In addition, the “Topo II-mediated DNA cleavage (REC, Relative Effective Concentration)” value in test [3] is more than 1000.
Consider `COc1cc2cc3c(nc2cc1OC)CCc1c-3ccc2c1OCO2` [Compound 13e, 5,6-Dihydro-9,10-dimethoxy-3,4-methylenedioxybenz[a]acridine], for which the “Topo I-mediated DNA cleavage (REC, Relative Effective Concentration)” value in test [1] came to 1.0. Moreover, the “topoisomerase I poisoning (in words)” value in test [1] (summary statement) is given as “potent topoisomerase I poisions”. The IC50 in test [2] (CPT-K5, 96 h) amounted to 22.4 µM; in test [4] (RPMI 8402, 96 h), 3 µM. For the same compound, in test [3], the “Topo II-mediated DNA cleavage (REC, Relative Effective Concentration)” value is more than 1000.
Take `COc1cc2cc3c(ccc4cc(OC)c(OC)cc43)nc2cc1OC` [Compound 14a, 2,3,9,10-Tetramethoxybenz[a]acridine]: the “Topo I-mediated DNA cleavage (REC, Relative Effective Concentration)” value in test [1] is 1000. Besides, the IC50 was determined as 2.9 µM in test [2] (CPT-K5, 96 h) and 2.9 µM in test [4] (RPMI 8402, 96 h). The “Topo II-mediated DNA cleavage (REC, Relative Effective Concentration)” value in test [3] is given as more than 1000.
In the case of `COc1cc2cc3c(ccc4cc(Cl)ccc43)nc2cc1OC` [Compound 14j, 3-Chloro-9,10-dimethoxybenz[a]acridine], in test [1], the “Topo I-mediated DNA cleavage (REC, Relative Effective Concentration)” value is 1000. In addition, the IC50 in test [2] (CPT-K5, 96 h) was more than 31 µM; in test [4] (RPMI 8402, 96 h) it was more than 31 µM. Also, in test [3], the “Topo II-mediated DNA cleavage (REC, Relative Effective Concentration)” value is more than 1000.
`COc1cc2c(cc1OC)-c1nc3cc(OC)c(OC)cc3c(C)c1CC2` [Compound 6, 2,3,9,10-Tetramethoxy-7-methyl-5,6-dihydrobenz[c]acridine]: the “Topo I-mediated DNA cleavage (REC, Relative Effective Concentration)” value in test [1] is listed as more than 1000. In addition, the half-inhibitory concentration (IC50) was more than 137 µM in test [2] (CPT-K5, 96 h) and more than 137 µM in test [4] (RPMI 8402, 96 h). In addition, the “Topo II-mediated DNA cleavage (REC, Relative Effective Concentration)” value in test [3] was more than 1000.
